Experimental data published in PMC9530963, “A cathelicidin antimicrobial peptide from Hydrophis cyanocinctus inhibits Zika virus infection by downregulating expression of a viral entry factor” (The Journal of Biological Chemistry, 2022).

Tests used:
ZIKV [1] = experiment: Susceptibility of U251 cells to ZIKV (peptide pretreatment); format: cell-based, ZIKV strain PRVABC59; details: 1.25, 2.5, and 5 μM, 2 h before ZIKV MOI = 1; 24 h; Western blot
Method: Figure 5 Hc-CATH downregulates AXL in U251 cell.A, schematic diagram of B and C. B, U251 cells were seeded in 24-well plates (5 × 10^4 cells/well) and cultured in DMEM containing 2% FBS. Hc-CATH (1.25, 2.5, and 5 μM) or same volume of PBS (peptide solvent) was added to cells and incubated at 37 °C for 24 h. The level of AXL was tested by Western blot. C, U251 cells were seeded in 8-well cover slip chambers (5 × 10^4 cells/well) and cultured in DMEM containing 2% FBS. Hc-CATH (1.25, 2.5, and 5 μM) or PBS was added to cells and incubated at 37 °C for 24 h. The level of AXL was tested by immunofluorescence staining. The scale bar represents 50 μm. D, schematic diagram of E–G. E–G, U251 cells were seeded in 24-well plates (5 × 10^4 cells/well) and cultured in DMEM containing 2% FBS. Hc-CATH (1.25, 2.5, and 5 μM) or PBS was added to cells and incubated at 37 °C for 2 h. Cells were washed with PBS and incubated with ZIKV (MOI = 1). After incubation at 37 °C for 2 h, cells were washed with PBS and cultured in DMEM containing 2% FBS.
Vero, A549, or U251 cells were incubated with peptide or PBS at 37 °C for 2 h. […]
The effect of Hc-CATH on AXL was further confirmed in A549 and U251 cells. A549 or U251 cells were incubated with Hc-CATH (1.25, 2.5, and 5 μM) or PBS at 37 °C for 24 h, and the level of AXL was detected by WB and IF, respectively. […]

TIM-1 = TIM-1 level in Vero cells (Western blot); format: cell-based, Chlorocebus aethiops; details: 6, 12, and 24 h post Hc-CATH addition
Method: Figure 3 Hc-CATH downregulates AXL in Vero cell.A, schematic diagram of B and C. B, Vero cells were seeded in 24-well plates (5 × 10^4 cells/well) and cultured in DMEM containing 2% FBS. Hc-CATH (1.25, 2.5, and 5 μM), AC5 (2.5 μM), LL-37 (2.5 μM), or same volume of PBS (peptide solvent) was added to cells. After culture at 37 °C for 6, 12, and 24 h, the levels of ZIKV entry factors, including AXL, TYRO3, and TIM-1, were tested by Western blot, respectively. C, Vero cells were seeded in 8-well cover slip chambers (5 × 10^4 cells/well) and cultured in DMEM containing 2% FBS. Hc-CATH (1.25, 2.5, and 5 μM), AC5 (2.5 μM), LL-37 (2.5 μM), or same volume of PBS (peptide solvent) was added to cells. After culture at 37 °C for 24 h, the level of AXL was tested by immunofluorescence staining. The scale bar represents 50 μm. D, schematic diagram of E. E, Vero cells were seeded in 24-well plates (5 × 10^4 cells/well) and cultured in DMEM containing 2% FBS. Hc-CATH (1.25, 2.5, and 5 μM), AC5 (2.5 μM), LL-37 (2.5 μM), or same volume of PBS (peptide solvent) was added to cells and incubated at 37 °C for 2 h. […] Ratio of AXL to β-actin was analyzed by ImageJ.
Vero cells were incubated with Hc-CATH (1.25, 2.5, and 5 μM), AC5 (2.5 μM), LL-37 (2.5 μM), or PBS (solvent of peptide). […] The levels of ZIKV entry factors, including AXL, TYRO3, and TIM-1, were detected by WB analysis. […]

ZIKV [2] = experiment: Susceptibility of Vero cells to ZIKV (peptide pretreatment of cells); format: cell-based, ZIKV strain PRVABC59; details: 2.5 μM, Vero cells incubated 2 h with peptide before ZIKV (MOI = 1), 48 h
Method: Figure 2 Hc-CATH decreases the susceptibility of Vero cells to ZIKV.A, schematic diagram of B–G (Hc-CATH-Vero-pre). B–G, pretreatment with Hc-CATH before ZIKV infection decreases the susceptibility of Vero cells to ZIKV. Vero cells were seeded in 24-well plates (5 × 10^4 cells/well) and cultured in DMEM containing 2% FBS. Hc-CATH (2.5 μM), AC5 (2.5 μM), LL-37 (2.5 μM), or same volume of PBS (peptide solvent) was added to cells and incubated at 37 °C for 2 h. Vero cells were washed three times with PBS, and ZIKV (MOI = 1) was added to cells. After incubation at 37 °C for 2 h, Vero cells were washed with PBS and transferred with fresh DMEM containing 2% FBS. After culture for 48 h, intracellular ZIKV RNA (B), NS3 protein (C and D, C: immunoblots, D: ratio analyzed by ImageJ), E protein (E, the scale bar represents 50 μm), and extracellular ZIKV titer (F and G) was tested by qPCR, Western blot, immunofluorescence staining, and plaque-forming assay, respectively.
Vero, A549, or U251 cells were incubated with peptide or PBS at 37 °C for 2 h. The cells were washed three times with PBS and incubated with ZIKV (MOI = 1) at 37 °C for 2 h. The culture media were replaced with fresh DMEM containing 2% FBS. After incubation at 37 °C for 48 h, intracellular ZIKV RNA, NS3 protein, E protein, and extracellular ZIKV titer were detected by qPCR, WB, IF, and plaque-forming assay, respectively ([28]).

What does the source list for “KFFKRLLKSVRRAVKKFRKKPRLIGLSTLL [Hc-CATH, cathelicidin antimicrobial peptide identified from the sea snake Hydrophis cyanocinctus]”?
susceptibility of U251 cells to ZIKV (NS3 protein) (ZIKV [1]): decreased the susceptibility; level of TIM-1 in Vero cells (TIM-1): did not obviously influence; reduction of ZIKV NS3 protein, cells pre-incubated with peptide (ZIKV [2]; Western blot): ~50.1%; reduction of ZIKV particles, cells pre-incubated with peptide (ZIKV [2]; plaque-forming assay): ~62.2%; reduction of ZIKV RNA, cells pre-incubated with peptide (ZIKV [2]; qPCR): about 46.1%
